Tests used:
MKN45 NLR target cells [1] = test: Incucyte real time killing assay, PBMCs + MKN45 NLR target cells + CEA-TCB with escalating dasatinib; type: cell-based, human
Experimental: (§1) FIG. 1. Real time killing of red fluorescent A375 cells loaded with RMF peptides by 10 nM HLA-A2 WT-1-TCB (A) and of red fluorescent MKN45 cells by 1 nM CEA-TCB (B) in the presence of different dasatinib concentrations ranging from 100 nM to 0 nM. (A) A375 NucLight Red (NLR) target cells were pulsed with RMF peptides (2 hours before killing assay) and co-cultured with HLA-A2 WT1-TCB, dasatinib (dasa) and PBMCs, effector to target ratio (E:T)=10:1 (E:T=50 000 PBMCs:5000 target cells). Killing was followed by Incucyte® (1 scan every 3 hours, zoom 10×, phase and red 400 ms acquisition time). % Killing was measured by normalizing total red area with values at t=0 hour and target cells+PBMCs+dasatinib (without TCB) control wells for each time point. Means of technical replicates+/−SEM for 1 donor. (B) MKN45 NLR target cells were co-cultured with CEA TCB, dasatinib and PBMCs, E:T=10:1 (E:T=50 000 PBMCs:5000 target cells). Killing was followed by Incucyte (1 scan every 3 hours, zoom 10×, phase and red 400 ms acquisition time). % Killing was measured by normalizing total red area with values at t=0 hour and target cells+PBMCs+dasatinib control wells for each time point. Means of technical replicates+/−SEM for 1 donor.
(§2) To assess the inhibitory effect of dasatinib on TCB-mediated target-cell killing, we conducted killing assays using peripheral blood mononuclear cells (PBMCs), NucLight Red (NLR) target-cells and respective TCB in media supplemented with escalating concentrations of dasatinib. The Incucyte® system (Essen Bioscience) was used to capture the loss of red fluorescent protein signal over time as a readout of target-cell killing.

[2] = blood of mice; cited from earlier work
MKN45 NLR target cells [3] = test: Reversibility killing assay with two and three stimulations (OFF/ON, ON/OFF/ON), MKN45 NLR + CEA-TCB, Incucyte; type: cell-based, human
Experimental: FIG. 16. In vitro killing assay set-up and timelines. PBMCs were stimulated on MKN45 NLR (E:T=10:1) target cells with 1 nM CEA-TCB for 96 hours. Activated PBMCs were washed and restimulated on new MKN45 NLR target cells (E:T=10:1) with 1 nM CEA-TCB in the presence of 25 nM dasatinib for 72 hours. Activated PBMCs were washed to remove dasatinib and restimulated on new MKN45 NLR target cells (E:T=10:1) with 1 nM CEA-TCB (“ON/OFF/ON”, see upper row of table), or vice versa (“OFF/ON/OFF”, see lower row of table). Killing was followed by Incucyte®.
FIG. 17. Real time killing of MKN45 NLR target cells by CEA-TCB in the presence of 25 nM dasatinib (0-72 h) upon first stimulation and in the absence of 25 nM dasatinib (96-170 h) upon restimulation, in the assay of FIG. 16 (“OFF/ON”).
FIG. 19. Real time killing of MKN45 NLR target cells by CEA-TCB in the assay of FIG. 16 (“ON/OFF/ON”).
FIG. 21. CEA-TCB mediated target cell killing. (A) PBMCs were stimulated on MKN45 NLR (E:T=10:1) target cells with 1 nM CEA-TCB for 96 hours in the presence and absence of dasatinib. (B) Activated PBMCs were washed to remove dasatinib and restimulated on new MKN45 NLR target cells (E:T=10:1) with 1 nM CEA-TCB. Killing was followed by Incucyte®.
We then verified if dasatinib's effect is reversible upon its removal. Therefore we set-up a killing assay with two and three stimulations in the presence and absence of dasatinib and followed the killing kinetics using an Incucyte® system (FIG. 16). After each stimulation, effector cells were washed and re-stimulated on fresh MKN45 NLR target cells with 1 nM CEA TCB in the presence and absence of dasatinib allowing to mimic OFF/ON switch and ON/OFF/ON switch.
Lastly, we evaluated if the effect of dasatinib was reversible on activated T cells. Consequently, we supplemented the media with 25 nM dasatinib upon the second stimulation with 1 nM CEA-TCB to prevent killing from activated T cells and then removed the dasatinib upon third stimulation with 1 nM CEA-TCB to verify if killing would be restored. […] We concluded that the effect of dasatinib in the prevention of T cell activation and cytotoxicity is reversible.
For T-cell engaging antibodies, cytokine release peaks are higher upon the first treatment than after subsequent treatments. We were curious to see if low doses of dasatinib could prevent cytokine release while minimally affecting TCB-efficacy upon first stimulation. In killing assays as described in FIG. 16, the cytokine levels upon first treatment with 1 nM CEA-TCB in the presence of 6.25 nM and 12.5 nM dasatinib and upon second treatment with 1 nM CEA-TCB in the absence of dasatinib were measured in the supernatants. […] Its removal upon second stimulation may also balance the cytokine release and restore TCB-induced cytotoxicity due to the reversibility properties of dasatinib.

[4] = system: A375 NucLight Red (NLR) target cells; test: Incucyte real time killing assay, PBMCs + RMF peptide-pulsed A375 NLR target cells + HLA-A2 WT1-TCB with escalating dasatinib; type: cell-based, human
Experimental: as §1, §2

For `Cc1nc(Nc2ncc(C(=O)Nc3c(C)cccc3Cl)s2)cc(N2CCN(CCO)CC2)n1` [dasatinib, N-(2-chloro-6-methylphenyl)-2-[[6-[4-(2-hydroxyethyl)-1-piperazinyl]-2-methyl-4-pyrimidinyl]amino]-5-thiazole carboxamide monohydrate], the inhibition at 0.0125 µM (MKN45 NLR target cells [1]; Homo sapiens, MKN-45, 12.5 nM dasatinib, 1 nM CEA-TCB, read-out: inhibition of target-cell killing) was 69%, the inhibition at 0.05 µM (MKN45 NLR target cells [1]; Homo sapiens, MKN-45, 50 nM (24.4 ng/mL) dasatinib, 1 nM CEA-TCB, read-out: inhibition of target-cell killing) was 88.2% and the inhibition at 0.1 µM (MKN45 NLR target cells [1]; Homo sapiens, MKN-45, 100 nM (48.8 ng/mL) dasatinib, 1 nM CEA-TCB, read-out: inhibition of target-cell killing) was 90.4%. For the same compound, the “threshold in vitro concentration for preventing T cell mediated target-cell lysis” value (MKN45 NLR target cells [1]; PBMCs stimulated with both TCB (CEA-TCB, HLA-A2 WT-1-TCB)) was 12.5 nM, the inhibition of killing (MKN45 NLR target cells [1]; dasatinib concentrations below 12.5 nM, 1 nM CEA-TCB) was “only partially inhibited killing” and the half-life [2] was “around 6 hrs”. For the same compound, the “killing induced by 1 nM CEA-TCB during first stimulation” value (MKN45 NLR target cells [3]; 6.25 nM and 12.5 nM dasatinib) was “only partially inhibited the killing”, the “killing of MKN45 NLR target cells (OFF/ON)” value (MKN45 NLR target cells [3]; 25 nM dasatinib during first stimulation, removed for second, 1 nM CEA TCB) was “killing inhibition which was then reversed upon dasatinib removal” and the “killing of MKN45 cells (ON/OFF/ON)” value (MKN45 NLR target cells [3]; 25 nM dasatinib upon second stimulation, removed upon third, 1 nM CEA-TCB) was “inhibited with the addition of 25 nM upon second stimulation and restored upon third stimulation”. For the same compound, the “killing upon removal of dasatinib during second stimulation” value (MKN45 NLR target cells [3]; after 6.25 nM and 12.5 nM dasatinib in first stimulation) was “killing was restored”, the inhibition at 0.0125 µM ([4]; Homo sapiens, A-375, 12.5 nM dasatinib, 10 nM HLA-A2 WT-1-TCB, read-out: inhibition of target-cell killing) was 78.2% and the inhibition at 0.05 µM ([4]; Homo sapiens, A-375, 50 nM (24.4 ng/mL) dasatinib, 10 nM HLA-A2 WT1-TCB, read-out: inhibition of target-cell killing) was 89%. The inhibition at 0.1 µM ([4]; Homo sapiens, A-375, 100 nM (48.8 ng/mL) dasatinib, 10 nM HLA-A2 WT1-TCB, read-out: inhibition of target-cell killing) was 86.5% and the inhibition of killing ([4]; dasatinib concentrations below 12.5 nM, 10 nM HLA-A2 WT-1-TCB) was “only partially inhibited killing”.
